Results on four compounds are retold here after patent publication US8604202B2, “Thienopyridone derivatives as AMP-activated protein kinase (AMPK) activators” (Merck Patent GmbH, priority 2008, dated 2013).

The target of assay [1] is T1, AMPK protein (recombinant α1β1γ2) (Homo sapiens, UniProt Q13131+Q9Y478).
T1 construct: made in house; host or cells: E. coli
In words: AMPK enzymatic activity (Delfia, AMARA peptide). In kind it is biochemical. Particulars: compound 30 μM vs AMP 30 μM; 125 μM ATP; 30 min room temperature; ratio 90% or higher = direct activator. Here is the method:
The following biological test allows the determination of the efficacy of such compounds of formula (I) onto AMPK protein (recombinant α1β1γ2).
Human recombinant AMPK enzyme was expressed in E. Coli and was reactivated in vitro by LKB1 prior to enzyme activity determination.
AMPK enzyme activities were assayed by using A Delfia technology. AMPK enzyme activities were carried out in microtiter plates (50 mM Hepes buffer, pH 7.4 with 125 μM ATP respectively) in the presence of a synthetic peptide substrate (AMARAASAAALARRR, the “AMARA” peptide) and activators in serial dilutions. Reactions were initiated by the addition of AMPK (50-100 ng). Following mixing, the plates were incubated for 30 min at room temperature. Enzyme activity was assayed by using an anti-phosphoserine antibody to measure the quantity of phosphate incorporated into the AMARAA.
Ratio between the % of control (basal activity) of compound of formula (I) at 30 μM and the % of control (basal activity) of AMP (natural substrate) at 30 μM. Compounds of formula (I) in the table II are considered as direct activator of AMPK if the ratio is 90% or higher.

A further assay relates to H-2 Kb cells. Description: Glucose uptake in H-2 Kb cells (in vitro cellular test). In kind it is cell-based, mouse. Particulars: Mus musculus; differentiated H-2 Kb muscle cells, 4 hours incubation, 2-deoxy-D-[3H]glucose 10 min; read-out: activity: Concentration of compound for a glucose uptake equal or higher to glucose uptake induced by insulin (170 nM). Here is the method:
The following cellular test allows the determination of the effect of AMPK activators such as compounds of formula (I) onto glucose uptake in a muscle cellular model.
H-2 Kb cells derived from heterozygous H-2 Kb tsA58 transgenic mouse were grown in 24-well in plates coated with matrigel and were cultured at 33° C. for 4 days under permissive conditions, as described previously by Fryer et al. (Diabetes 49 (12): 1978, 2000).
For differentiation in muscle, cells were switched to non-permissive culture conditions (37° C. in the absence of interferon-γ). After 3 days, cells were incubated for 4 hours in DMEM 1 g/l glucose culture medium containing different concentrations of the tested molecules. Then glucose uptake was measured by incubating the cells for 10 min with radiolabelled 2-deoxy-D-[1, 2 ^3H] glucose. Glucose uptake was terminated by rapidly washing the plates 2 times with ice-cold NaCl 0.9%. The cells were then solubilized in 0.1N NaOH for 30 min. Radioactivity was determined by liquid scintillation counting.
Activity table III: Concentration of compound (1) for a glucose uptake equal or higher to glucose uptake induced by insulin (170 nM)

In another assay the test system is ob/ob and db/db mice. The note with it: 8 day administration; cited from earlier work.

Each structure is given as a SMILES string.

T1 sequence (Q13131 whole entry): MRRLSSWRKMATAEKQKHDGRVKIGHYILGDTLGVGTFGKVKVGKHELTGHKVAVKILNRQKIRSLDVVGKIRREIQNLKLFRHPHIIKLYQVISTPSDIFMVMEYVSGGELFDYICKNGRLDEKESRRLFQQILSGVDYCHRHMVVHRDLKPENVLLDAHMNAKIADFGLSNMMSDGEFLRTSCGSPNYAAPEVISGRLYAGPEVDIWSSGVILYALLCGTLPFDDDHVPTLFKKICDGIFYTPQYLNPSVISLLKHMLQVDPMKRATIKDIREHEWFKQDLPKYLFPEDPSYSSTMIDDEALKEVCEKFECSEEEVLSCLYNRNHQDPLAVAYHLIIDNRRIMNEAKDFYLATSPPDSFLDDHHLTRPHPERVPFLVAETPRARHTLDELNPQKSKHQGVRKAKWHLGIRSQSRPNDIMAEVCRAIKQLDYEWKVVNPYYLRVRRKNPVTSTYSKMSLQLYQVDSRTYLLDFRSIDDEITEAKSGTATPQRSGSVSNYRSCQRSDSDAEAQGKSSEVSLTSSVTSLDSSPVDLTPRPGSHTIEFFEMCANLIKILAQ
T1 sequence (Q9Y478 whole entry): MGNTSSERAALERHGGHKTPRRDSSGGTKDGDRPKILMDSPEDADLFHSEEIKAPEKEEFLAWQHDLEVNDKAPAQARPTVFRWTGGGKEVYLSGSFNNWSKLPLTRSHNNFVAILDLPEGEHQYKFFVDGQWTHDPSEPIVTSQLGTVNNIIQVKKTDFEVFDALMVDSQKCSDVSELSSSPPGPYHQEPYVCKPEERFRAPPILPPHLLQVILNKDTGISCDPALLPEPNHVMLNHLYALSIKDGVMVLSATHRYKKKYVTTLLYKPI
T1 sequence (Q9UGJ0 whole entry partner): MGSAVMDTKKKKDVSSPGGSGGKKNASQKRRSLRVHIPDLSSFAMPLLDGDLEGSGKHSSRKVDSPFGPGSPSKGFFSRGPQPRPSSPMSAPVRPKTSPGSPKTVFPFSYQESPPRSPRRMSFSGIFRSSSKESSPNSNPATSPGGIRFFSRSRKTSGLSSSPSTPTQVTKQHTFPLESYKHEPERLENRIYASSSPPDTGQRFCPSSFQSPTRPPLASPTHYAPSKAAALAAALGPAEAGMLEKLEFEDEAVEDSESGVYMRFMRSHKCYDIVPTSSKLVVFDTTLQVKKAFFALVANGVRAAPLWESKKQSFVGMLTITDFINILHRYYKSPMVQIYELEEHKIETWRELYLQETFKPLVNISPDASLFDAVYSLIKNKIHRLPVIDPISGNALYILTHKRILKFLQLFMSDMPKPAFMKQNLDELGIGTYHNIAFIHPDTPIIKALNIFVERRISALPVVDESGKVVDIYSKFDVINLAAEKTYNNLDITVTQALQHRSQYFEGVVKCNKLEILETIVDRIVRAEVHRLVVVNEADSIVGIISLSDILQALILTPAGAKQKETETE

Regarding `O=c1[nH]c2scc(-c3ccc(-c4ccccc4)cc3)c2c(O)c1-c1ccccc1` [Compound 1, 3-biphenyl-4-yl-4-hydroxy-5-phenyl-6,7-dihydro-thieno[2,3-b]pyridin-6-one], the “activity: Ratio between the % of control (basal activity) of compound of formula (I) at 30 μM and the % of control (basal activity) of AMP at 30 μM” value (shortened to “activity: Ratio between the % of control”) in assay [1] was found to be 130%. Moreover, the EC (glucose uptake equal or higher to insulin 170 nM) with H-2 Kb cells was above 10 µM.
Take `NC(=O)c1ncn([C@@H]2O[C@H](CO)[C@@H](O)[C@H]2O)c1N` [AICAR, 5-aminoimidazole-4-carboxamide riboside]: the reduces blood glucose with ob/ob and db/db mice is 35%.
On to `O=c1[nH]c2scc(-c3ccc(-c4ccccc4F)cc3)c2c(O)c1-c1ccccc1` [Compound 6, 3-(2′-fluorobiphenyl-4-yl)-4-hydroxy-5-phenyl-6,7-dihydro-thieno[2,3-b]pyridin-6-one], for which, in assay [1], the “activity: Ratio between the % of control” value amounted to 191%. Further, in the assay with H-2 Kb cells, the EC (glucose uptake equal or higher to insulin 170 nM) was above 10 µM.
For the compound `COc1ccccc1-c1ccc(-c2csc3[nH]c(=O)c(-c4ccccc4)c(O)c23)cc1` [Compound 2, 4-hydroxy-3-(2′-methoxybiphenyl-4-yl)-5-phenyl-6,7-dihydro-thieno[2,3-b]pyridin-6-one], the “activity: Ratio between the % of control” value in assay [1] amounted to 158%. Further, in the assay on H-2 Kb cells, the EC (glucose uptake equal or higher to insulin 170 nM) is above 10 µM.
